Data on three compounds can be found in patent publication US8445510B2, “Fused bicyclic kinase inhibitors” (OSI Pharmaceuticals, LLC, priority 2011, dated 2013).

Test [1] addresses T1, Aurora B (Homo sapiens, UniProt Q96GD4).
T1 construct: HT-29 cells grown in complete growth media
Put plainly: Aurora B cell mechanistic assay (HT-29), phospho-Histone H3 (Ser10) ELISA. It counts as cell-based. Conditions: HT-29 cell line; inhibition of phospho-Histone H3 (Ser10); at least duplicate experiments (italicized if single experiment); read-out: Aurora B mech IC50. Summed up: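 HT-29 cells treated 1 h at 37 °C with serially diluted compound, then 100 nM Calyculin A added for 30 min. Lysates assayed by phospho-Histone H3 (Ser10) ELISA at 450 nm; normalized to DMSO (100%) and a reference Aurora B inhibitor (full inhibition); IC50 by four-parameter fit.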
In general terms: In an ELISA, binding on a coated surface is turned into a signal by an enzyme label.

Test [2] has as its system MKN45 cells. The experiment in a line: MKN45 cell proliferation assay (CellTiter-Glo). It is filed as cell-based. Conditions: Homo sapiens, MKN-45, 72 h; MKN45 cell line; 3 days incubation; at least duplicate experiments; read-out: Prolif. IC50. (In general: In ATP-based viability assays light output follows the ATP content of the culture.)

T1 sequence (Q96GD4 whole entry): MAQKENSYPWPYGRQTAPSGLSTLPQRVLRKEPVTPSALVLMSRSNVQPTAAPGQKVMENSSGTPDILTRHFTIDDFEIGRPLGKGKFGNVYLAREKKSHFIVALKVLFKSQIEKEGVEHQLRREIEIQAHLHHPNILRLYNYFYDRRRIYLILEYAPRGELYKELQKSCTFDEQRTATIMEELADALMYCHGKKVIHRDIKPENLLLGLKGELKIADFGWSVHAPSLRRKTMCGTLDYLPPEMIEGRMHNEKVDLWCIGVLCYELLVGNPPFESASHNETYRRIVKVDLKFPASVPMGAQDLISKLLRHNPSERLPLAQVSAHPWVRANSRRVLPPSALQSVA

The IC50 is the concentration needed to halve the response being measured. Regarding `COc1ccc(F)c(Cl)c1[C@@H](C)c1c[nH]c2ncc(-c3cn([C@H]4CC[C@H](C(=O)N(C)C)CC4)nc3C)cc12` [Example 23, trans-4-(4-{3-[(1S)-1-(2-chloro-3-fluoro-6-methoxyphenyl)ethyl]-1H-pyrrolo[2,3-b]pyridin-5-yl}-3-methyl-1H-pyrazol-1-yl)-N,N-dimethylcyclohexanecarboxamide], the 50% inhibitory concentration (IC50) was 50 to 200 nM in test [1] and at most 50 nM in test [2].

As for `CNC(=O)[C@H]1CC[C@H](n2nc(C)c(-c3cnc4[nH]cc([C@H](C)c5c(OC)ccc(F)c5Cl)c4c3)c2C)CC1` [Example 24, trans-4-(4-{3-[(1S)-1-(2-Chloro-3-fluoro-6-methoxyphenyl)ethyl]-1H-pyrrolo[2,3-b]pyridin-5-yl}-3,5-dimethyl-1H-pyrazol-1-yl)-N-methylcyclohexanecarboxamide], the IC50 was above 1000 nM in test [1] and at most 50 nM in test [2].

`COc1ccc(F)c(Cl)c1[C@@H](C)c1c[nH]c2ncc(-c3cn([C@H]4CC[C@H](O)CC4)nc3C)cc12` [Example 28, trans-4-(4-{3-[(1S)-1-(2-Chloro-3-fluoro-6-methoxyphenyl)ethyl]-1H-pyrrolo[2,3-b]pyridin-5-yl}-3-methyl-1H-pyrazol-1-yl)cyclohexanol]: the 50% inhibitory concentration (IC50) in test [1] is 50 to 200 nM; in test [2] it was at most 50 nM.
